Assay results from patent publication US20080242661A1, “Novel compounds useful for the treatment of degenerative & inflammatory diseases” (priority 2006, published 2008).

Molecular target: purified PDE1A enzyme (Homo sapiens, UniProt P54750)
Test: In vitro PDE1A assay, dose response (Biomol Cyclic Nucleotide Phosphodiesterase Assay Kit, colorimetric)
Type: biochemical
Conditions: 100 μM cAMP, 45 min at 37° C., 8 points from 20 μM, duplicate
From the text: For the dose response and further screening, we used the Cyclic Nucleotide Phosphodiesterase Assay Kit from Biomol, a colorimetric, non-radioactive assay. The basis for the assay is the cleavage of cAMP by PDE1A. The 5′AMP is further cleaved into the nucleoside and phosphate by the enzyme 5′-nucleotidase (catnr KI-307). The phosphate released due to enzymatic cleavage is quantified using BIOMOL GREEN™ reagent (catnr AK-111) in a modified Malachite Green assay 1,2. A PDE1A inhibitor will result in a decrease of the signal.
For the enzymatic reaction a mix of 25 μL with purified PDE1A enzyme, 100 μM cAMP, 5′Nucleotidase and the compound is made in a clear 384-plate. The reaction buffer is Tris 20 mM pH 7.4, 4 μg/ml calmodulin, 3 mM MgCl2, 1.5 mM CaCl2, 0.2 mg/mL BSA and 0.001% Brij-35. After an incubation of 45 minutes at 37° C., the reaction is stopped by the addition of 50 μL BIOMOL GREEN™ reagent. After 30 minutes incubation at room temperature, the readout is performed on the Envision (absorption at 615 nm).
All compounds are tested in duplicate starting from 20 μM followed by a ⅓ serial dilution, 8 points (20 μM-6.67 μM-2.22 μM-740 nM-247 nM-82 nM-27 nM-9 nM) in a final concentration of 1% DMSO. As the positive dose response control compound Vardenafil is used. For the calculation of z′ and PIN values 10 μM Vardenafil is used as positive control (100% inhibition) and 1% DMSO as negative control (0% inhibition).
The following compounds have been or can be prepared according to the synthetic methods described above. For the purpose of Table 2 below, activity of each compound, which can be determined using the PDE1A assay method described in above, is expressed as follows: […]

| SMILES | IC50 |
| --- | --- |
| CCCc1nn(C)c2c(=O)[nH]c(N(C)Cc3cccc4ccccc34)nc12 [Example 58, 1-methyl-5-(methyl(naphthalen-1-ylmethyl)amino)-3-propyl-1H-pyrazolo[4,3-d]pyrimidin-7(6H)-one] | > 500 nM |
| CCCc1nn(C)c2c(=O)[nH]c(N(C)CCc3ccccc3)nc12 [Example 22, 1-methyl-5-(methyl(phenethyl)amino)-3-propyl-1H-pyrazolo[4,3-d]pyrimidin-7(6H)-one] | 101 to 500 nM |
| CCC(CC)CN(Cc1cccc(N2CCOCC2)c1)c1nc2c(C(C)(C)C)nn(C)c2c(=O)[nH]1 [Example 109, 3-tert-butyl-5-((2-ethylbutyl)(3-morpholinobenzyl)amino)-1-methyl-1H-pyrazolo[4,3-d]pyrimidin-7(6H)-one] | < 100 nM |
| CCCc1nn(C)c2c(=O)[nH]c(N(C)Cc3ccc(-c4cncnc4)cc3)nc12 [Example 13, 1-methyl-5-(methyl(4-(pyrimidin-5-yl)benzyl)amino)-3-propyl-1H-pyrazolo[4,3-d]pyrimidin-7(6H)-one] | 101 to 500 nM |
| CCCC(C)CN(Cc1cccc(N2CCOCC2)c1)c1nc2c(C(C)(C)C)nn(C)c2c(=O)[nH]1 (centres unmarked) [Example 104, 3-tert-butyl-1-methyl-5-((2-methylpentyl)(3-morpholinobenzyl)amino)-1H-pyrazolo[4,3-d]pyrimidin-7(6H)-one] | < 100 nM |
| CCCc1nn(C)c2c(=O)[nH]c(N(C)Cc3cccc(C(F)(F)F)c3)nc12 [Example 5, 1-methyl-5-(methyl(3-(trifluoromethyl)benzyl)amino)-3-propyl-1H-pyrazolo[4,3-d]pyrimidin-7(6H)-one] | 101 to 500 nM |
| CCCc1nn(C)c2c(=O)[nH]c(N(Cc3cccc(-n4cncn4)c3)CC(C)CC)nc12 (centres unmarked) [Example 116] | < 100 nM |
| Cc1nc(-c2cccc(CN(C)c3nc4c(C(C)(C)C)nn(C)c4c(=O)[nH]3)c2)cs1 [Example 90, 3-tert-butyl-1-methyl-5-(methyl(3-(2-methylthiazol-4-yl)benzyl)amino)-1H-pyrazolo[4,3-d]pyrimidin-7(6H)-one] | < 100 nM |
| CCCc1nn(C)c2c(=O)[nH]c(NCc3nnc4ccccn34)nc12 [Example 83, 5-([1,2,4]triazolo[4,3-a]pyridin-3-ylmethylamino)-1-methyl-3-propyl-1H-pyrazolo[4,3-d]pyrimidin-7(6H)-one] | 101 to 500 nM |
| CCCc1nn(C)c2c(=O)[nH]c(N(C)Cc3ccc(OCCN4CCOCC4)cc3)nc12 [Example 49, 1-methyl-5-(methyl(4-(2-morpholinoethoxy)benzyl)amino)-3-propyl-1H-pyrazolo[4,3-d]pyrimidin-7(6H)-one] | 101 to 500 nM |
| CCCc1nn(C)c2c(=O)[nH]c(N(C)Cc3cccc(-c4cncnc4)c3)nc12 [Example 12, 1-methyl-5-(methyl(3-(pyrimidin-5-yl)benzyl)amino)-3-propyl-1H-pyrazolo[4,3-d]pyrimidin-7(6H)-one] | 101 to 500 nM |
| CCCc1nn(C)c2c(=O)[nH]c(N(Cc3cccc(-n4cncn4)c3)CC(C)C)nc12 [Example 96] | < 100 nM |
| Cn1nc(C2CCCC2)c2nc(NCc3ccc(Cl)c(Cl)c3)[nH]c(=O)c21 [Example 76, 3-cyclopentyl-5-(3,4-dichlorobenzylamino)-1-methyl-1H-pyrazolo[4,3-d]pyrimidin-7(6H)-one] | 101 to 500 nM |
| CCC(CC)CN(C)c1nc2c(C(C)(C)C)nn(C)c2c(=O)[nH]1 [Example 105, 3-tert-butyl-5-((2-ethylbutyl)(methyl)amino)-1-methyl-1H-pyrazolo[4,3-d]pyrimidin-7(6H)-one] | < 100 nM |
| CCCc1nn(C)c2c(=O)[nH]c(NCc3sc(-c4ccccc4)nc3C)nc12 [Example 72, 1-methyl-5-((4-methyl-2-phenylthiazol-5-yl)methylamino)-3-propyl-1H-pyrazolo[4,3-d]pyrimidin-7(6H)-one] | < 100 nM |
| CCCc1nn(C)c2c(=O)[nH]c(NCc3c(C)nn(Cc4ccccc4)c3C)nc12 [Example 91, 5-((1-benzyl-3,5-dimethyl-1H-pyrazol-4-yl)methylamino)-1-methyl-3-propyl-1H-pyrazolo[4,3-d]pyrimidin-7(6H)-one] | 101 to 500 nM |
| CCCc1nn(C)c2c(=O)[nH]c(NCc3cc(C(F)(F)F)cc(C(F)(F)F)c3)nc12 [Example 31, 5-(3,5-bis(trifluoromethyl)benzylamino)-1-methyl-3-propyl-1H-pyrazolo[4,3-d]pyrimidin-7(6H)-one] | > 500 nM |
| CCCc1nn(C)c2c(=O)[nH]c(NCc3cccc(-n4cncn4)c3)nc12 [Example 73] | 101 to 500 nM |
| CCCc1nn(C)c2c(=O)[nH]c(NCc3cccc(N4CCOCC4)c3)nc12 [Example 56, 1-methyl-5-(3-morpholinobenzylamino)-3-propyl-1H-pyrazolo[4,3-d]pyrimidin-7(6H)-one] | 101 to 500 nM |
| CCCCN(Cc1ccc(Cl)c(Cl)c1)c1nc2c(CCC)nn(C)c2c(=O)[nH]1 [Example 46, 5-(butyl(3,4-dichlorobenzyl)amino)-1-methyl-3-propyl-1H-pyrazolo[4,3-d]pyrimidin-7(6H)-one] | 101 to 500 nM |
| CCCc1nn(C)c2c(=O)[nH]c(N(C)Cc3ccc(Cl)c(Cl)c3)nc12 [Example 2, 5-((3,4-dichlorobenzyl)(methyl)amino)-1-methyl-3-propyl-1H-pyrazolo[4,3-d]pyrimidin-7(6H)-one] | < 100 nM |
| CN(Cc1ccc(Cl)cc1)c1nc2c(C3CCCC3)nn(C)c2c(=O)[nH]1 [Example 71, 5-((4-chlorobenzyl)(methyl)amino)-3-cyclopentyl-1-methyl-1H-pyrazolo[4,3-d]pyrimidin-7(6H)-one] | < 100 nM |

Continued, values first:

| IC50 | SMILES |
| --- | --- |
| 101 to 500 nM | CCCc1nn(C)c2c(=O)[nH]c(NCc3ccn(-c4ccccc4)n3)nc12 [Example 57, 1-methyl-5-((1-phenyl-1H-pyrazol-3-yl)methylamino)-3-propyl-1H-pyrazolo[4,3-d]pyrimidin-7(6H)-one] |
| > 500 nM | CCCc1nn(C)c2c(=O)[nH]c(N(C)Cc3ccnc(N4CCCC4)c3)nc12 [Example 41, 1-methyl-5-(methyl((2-(pyrrolidin-1-yl)pyridin-4-yl)methyl)amino)-3-propyl-1H-pyrazolo[4,3-d]pyrimidin-7(6H)-one] |
| 101 to 500 nM | CCCc1nn(C)c2c(=O)[nH]c(N(CCC)CCc3ccc(Cl)cc3)nc12 [Example 75, 5-((4-chlorophenethyl)(propyl)amino)-1-methyl-3-propyl-1H-pyrazolo[4,3-d]pyrimidin-7(6H)-one] |
| 101 to 500 nM | CCCc1nn(C)c2c(=O)[nH]c(N(C)Cc3ccc(N4CCCCC4)cc3)nc12 [Example 3, 1-methyl-5-(methyl(4-(piperidin-1-yl)benzyl)amino)-3-propyl-1H-pyrazolo[4,3-d]pyrimidin-7(6H)-one] |
| 101 to 500 nM | CCCc1nn(C)c2c(=O)[nH]c(N(C)Cc3cccc(-c4csc(C)n4)c3)nc12 [Example 65, 1-methyl-5-(methyl(3-(2-methylthiazol-4-yl)benzyl)amino)-3-propyl-1H-pyrazolo[4,3-d]pyrimidin-7(6H)-one] |
| 101 to 500 nM | CCCc1nn(C)c2c(=O)[nH]c(NCc3cccc(N4CCCC4)c3)nc12 [Example 26, 1-methyl-3-propyl-5-(3-(pyrrolidin-1-yl)benzylamino)-1H-pyrazolo[4,3-d]pyrimidin-7(6H)-one] |
| 101 to 500 nM | CCCc1nn(C)c2c(=O)[nH]c(N(C)Cc3cccc(N4CCOCC4)n3)nc12 [Example 42, 1-methyl-5-(methyl((6-morpholinopyridin-2-yl)methyl)amino)-3-propyl-1H-pyrazolo[4,3-d]pyrimidin-7(6H)-one] |
| 101 to 500 nM | CCCc1nn(C)c2c(=O)[nH]c(N(C)Cc3csc(-c4ccc(C(F)(F)F)cc4)n3)nc12 [Example 39, 1-methyl-5-(methyl((2-(4-(trifluoromethyl)phenyl)thiazol-4-yl)methyl)amino)-3-propyl-1H-pyrazolo[4,3-d]pyrimidin-7(6H)-one] |
| < 100 nM | CN(Cc1cc(-c2ccccc2)nn1C)c1nc2c(C(C)(C)C)nn(C)c2c(=O)[nH]1 [Example 81, 3-tert-butyl-1-methyl-5-(methyl((1-methyl-3-phenyl-1H-pyrazol-5-yl)methyl)amino)-1H-pyrazolo[4,3-d]pyrimidin-7(6H)-one] |
| > 500 nM | CCCc1nn(C)c2c(=O)[nH]c(NCCC(C)C)nc12 [Example 19, 5-(isopentylamino)-1-methyl-3-propyl-1H-pyrazolo[4,3-d]pyrimidin-7(6H)-one] |
| 101 to 500 nM | CCCc1nn(C)c2c(=O)[nH]c(NCc3cccc(-n4cccn4)c3)nc12 [Example 63] |
| > 500 nM | CCCc1nn(C)c2c(=O)[nH]c(N3CCN(C(=O)C(c4ccccc4)c4ccccc4)CC3)nc12 [Example 59, 5-(4-(2,2-diphenylacetoyl)piperazin-1-yl)-1-methyl-3-propyl-1H-pyrazolo[4,3-d]pyrimidin-7(6H)-one] |
| 101 to 500 nM | CCCc1nn(C)c2c(=O)[nH]c(N3CCc4cc(F)ccc4C3)nc12 [Example 34, 5-(6-fluoro-3,4-dihydroisoquinolin-2(1H)-yl)-1-methyl-3-propyl-1H-pyrazolo[4,3-d]pyrimidin-7(6H)-one] |
